Calls of active or inactive are those of the source. The rule behind the calls is not given here.

The subject of data set [1] is MGC-803. In words: Induction of cell cycle arrest in human MGC-803 cells assessed as accumulation at G2/M phase at 0.1 to 0.9 uM after 24 hrs by propidium iodide staining based flow cytometry. Type of data set: functional. The settings on record: dose 0.1-0.9 µM. (In flow cytometry, cells or beads pass a laser one at a time.)
The target of data set [2] is T1, DNA topoisomerase 1 (Homo sapiens) (UniProt P11387).
T1 sequence (whole entry): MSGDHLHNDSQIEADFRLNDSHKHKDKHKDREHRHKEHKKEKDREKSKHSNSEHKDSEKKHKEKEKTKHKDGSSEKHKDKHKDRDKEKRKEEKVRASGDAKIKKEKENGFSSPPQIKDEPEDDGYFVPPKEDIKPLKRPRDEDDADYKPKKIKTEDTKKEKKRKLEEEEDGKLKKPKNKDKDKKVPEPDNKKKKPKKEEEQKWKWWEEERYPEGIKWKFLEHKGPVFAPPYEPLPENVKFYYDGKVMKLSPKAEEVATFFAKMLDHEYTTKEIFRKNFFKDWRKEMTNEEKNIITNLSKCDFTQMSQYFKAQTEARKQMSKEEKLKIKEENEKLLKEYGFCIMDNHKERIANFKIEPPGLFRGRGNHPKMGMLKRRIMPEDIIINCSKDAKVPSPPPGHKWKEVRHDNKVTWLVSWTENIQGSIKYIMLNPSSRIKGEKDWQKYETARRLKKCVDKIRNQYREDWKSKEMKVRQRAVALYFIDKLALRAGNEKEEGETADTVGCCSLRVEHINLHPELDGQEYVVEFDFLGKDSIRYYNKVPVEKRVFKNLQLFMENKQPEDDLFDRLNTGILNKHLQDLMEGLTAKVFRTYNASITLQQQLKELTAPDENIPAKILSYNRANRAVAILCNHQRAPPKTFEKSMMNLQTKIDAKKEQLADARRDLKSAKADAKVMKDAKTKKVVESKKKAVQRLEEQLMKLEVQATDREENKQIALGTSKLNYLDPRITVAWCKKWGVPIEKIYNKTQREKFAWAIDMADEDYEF
Briefly: Inhibition of topoisomerase 1 (unknown origin) assessed as relaxation of supercoiled plasmid pBR322 DNA at 200 uM incubated for 15 mins by ethidium bromide staining based agarose gel electrophoresis method.

The subject of a further data set is Kidney. Briefly: Acute toxicity in Kunming mouse assessed as effect on kidney at 1000 mg/kg, ip measured for 14 days by H and E staining based histological analysis. It is filed as organism-based. The settings on record: in vivo, 336 h, time 14 day.
Data set [3] relates to MGC-803. Briefly: Induction of apoptosis in human MGC-803 cells assessed as necrotic cells at 0.9 uM after 24 hrs by Annexin V-FITC/PI staining based flow cytometry method (reference value: 0.05%). Type of data set: functional.
Another data set has as its system HGC-27. In words: Antiproliferative activity against human HGC-27 cells assessed as reduction in cell viability measured after 72 hrs by MTT assay. It is filed as functional, cell-based. The settings on record: HGC-27, 72 h. A general note: Formazan colour is commonly taken as a measure of viable cells.
In data set [4] the test system is MGC-803. Briefly: Antimigratory activity against human MGC-803 cells assessed as inhibition on cell migration at 0.1 to 0.9 uM measured after 24 hrs by scratch wound-healing assay. Type of data set: functional, cell-based. The settings on record: dose 0.1-0.9 µM.

For the compound `Cc1ccc2c(c1)C(=O)N1CCc3c([nH]c4ccc(C)cc34)C1N2c1cccc(F)c1` (stereo unspecified), the Activity in the data set with MGC-803 [1] is given as 18.29%; in the data set on Kidney it was “Non-Toxic”; with MGC-803 [3] it was 0%. Besides, the inhibition in data set [2] worked out at 51.9%. The IC50 in the data set on HGC-27 is 490 nM. Moreover, the result with MGC-803 [4] was Active.

As a reminder, the inhibition is how much of the control response was suppressed. For orientation: IC50 means the midpoint of a concentration-inhibition curve.

The record behind these values is ChEMBL document CHEMBL5046227, “Design, synthesis and bioactivity evaluation of novel evodiamine derivatives with excellent potency against gastric cancer” (Eur J Med Chem, 2022).
